From ChEMBL document CHEMBL5465560, “Selectivity Literature for EUbOPEN Chemogenomic Library” (2024)

How the values were obtained:
[1] = molecular target: Homeodomain-interacting protein kinase 2 (Homo sapiens, UniProt Q9H2X6); experiment: Selectivity interaction (KinomeScan (DiscoverX)) EUB0000229b HIPK2; conditions: at 10 µM
[2] = molecular target: T1, Mitogen-activated protein kinase kinase kinase 19 (Homo sapiens) (UniProt Q56UN5); experiment: Selectivity interaction (KinomeScan (DiscoverX)) EUB0000595a MAP3K19; conditions: at 10 µM
T1 sequence (whole entry): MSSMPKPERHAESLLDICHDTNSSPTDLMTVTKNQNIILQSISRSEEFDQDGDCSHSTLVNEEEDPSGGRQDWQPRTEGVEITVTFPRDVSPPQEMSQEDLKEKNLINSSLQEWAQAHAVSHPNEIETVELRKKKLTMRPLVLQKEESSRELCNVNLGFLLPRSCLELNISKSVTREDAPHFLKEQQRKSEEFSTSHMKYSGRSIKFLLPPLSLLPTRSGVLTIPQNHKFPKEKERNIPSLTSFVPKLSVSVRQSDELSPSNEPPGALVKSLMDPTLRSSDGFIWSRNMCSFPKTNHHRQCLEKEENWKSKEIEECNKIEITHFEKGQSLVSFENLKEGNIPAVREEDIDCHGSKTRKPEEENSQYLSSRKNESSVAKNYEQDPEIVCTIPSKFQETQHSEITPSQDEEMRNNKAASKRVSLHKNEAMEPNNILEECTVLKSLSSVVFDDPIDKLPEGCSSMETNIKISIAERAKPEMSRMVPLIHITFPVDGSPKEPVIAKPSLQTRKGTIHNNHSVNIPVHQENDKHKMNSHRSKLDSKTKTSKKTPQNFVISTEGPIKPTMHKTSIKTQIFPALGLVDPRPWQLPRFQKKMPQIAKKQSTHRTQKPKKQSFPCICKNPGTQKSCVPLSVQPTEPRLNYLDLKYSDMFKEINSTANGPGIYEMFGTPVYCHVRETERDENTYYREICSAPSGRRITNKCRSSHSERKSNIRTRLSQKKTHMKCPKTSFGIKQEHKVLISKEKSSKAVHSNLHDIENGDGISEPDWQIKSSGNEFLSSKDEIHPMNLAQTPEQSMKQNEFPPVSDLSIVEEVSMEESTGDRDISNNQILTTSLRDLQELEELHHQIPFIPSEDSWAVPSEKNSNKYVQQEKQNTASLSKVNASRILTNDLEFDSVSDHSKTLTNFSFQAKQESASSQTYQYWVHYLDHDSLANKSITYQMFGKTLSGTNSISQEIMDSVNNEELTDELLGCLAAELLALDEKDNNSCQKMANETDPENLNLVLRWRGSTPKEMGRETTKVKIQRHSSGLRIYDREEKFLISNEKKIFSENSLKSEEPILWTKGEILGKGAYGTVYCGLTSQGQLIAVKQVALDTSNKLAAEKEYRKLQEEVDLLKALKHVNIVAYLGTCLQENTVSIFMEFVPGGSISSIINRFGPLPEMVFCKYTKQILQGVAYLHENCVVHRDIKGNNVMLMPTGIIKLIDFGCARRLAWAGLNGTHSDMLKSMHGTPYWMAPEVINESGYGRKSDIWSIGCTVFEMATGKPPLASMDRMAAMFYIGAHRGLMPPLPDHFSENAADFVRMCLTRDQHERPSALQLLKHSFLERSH

[3] = molecular target: T2, Mitogen-activated protein kinase kinase kinase 3 (Homo sapiens) (UniProt Q99759); experiment: Selectivity interaction (KinomeScan (DiscoverX)) EUB0000695a MAP3K3; conditions: at 100 nM
T2 sequence (whole entry): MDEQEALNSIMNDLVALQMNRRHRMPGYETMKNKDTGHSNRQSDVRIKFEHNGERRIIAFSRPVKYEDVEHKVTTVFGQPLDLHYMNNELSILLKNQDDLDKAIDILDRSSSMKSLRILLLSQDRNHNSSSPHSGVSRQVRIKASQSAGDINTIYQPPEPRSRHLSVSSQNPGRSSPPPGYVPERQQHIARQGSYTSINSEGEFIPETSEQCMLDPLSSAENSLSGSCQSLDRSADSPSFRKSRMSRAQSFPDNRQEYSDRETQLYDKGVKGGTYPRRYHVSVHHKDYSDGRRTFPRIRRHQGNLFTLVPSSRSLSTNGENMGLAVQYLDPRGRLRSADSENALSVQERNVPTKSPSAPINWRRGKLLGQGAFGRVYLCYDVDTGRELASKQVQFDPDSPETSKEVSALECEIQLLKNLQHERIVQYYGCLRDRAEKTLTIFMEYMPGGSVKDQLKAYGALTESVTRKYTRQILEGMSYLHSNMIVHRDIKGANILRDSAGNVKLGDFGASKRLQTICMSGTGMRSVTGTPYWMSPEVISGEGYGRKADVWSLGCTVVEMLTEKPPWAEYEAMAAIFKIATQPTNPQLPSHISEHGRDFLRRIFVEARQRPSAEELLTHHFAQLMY

[4] = molecular target: Tyrosine-protein kinase ABL2 (Homo sapiens, UniProt P42684); experiment: Selectivity interaction (KinomeScan (DiscoverX)) EUB0001079a ABL2; conditions: at 1 µM
[5] = molecular target: Vascular endothelial growth factor receptor 3 (Homo sapiens, UniProt P35916); experiment: Selectivity interaction (Kinase panel (Z-LYTE Assay)) EUB0001632a FLT4; conditions: at 10 µM
[6] = molecular target: Atypical kinase COQ8A, mitochondrial (Homo sapiens, UniProt Q8NI60); experiment: Selectivity interaction (KinomeScan (DiscoverX)) EUB0000666a ADCK3; conditions: at 10 µM
[7] = molecular target: Tyrosine-protein kinase HCK (Homo sapiens) (UniProt P08631); experiment: Selectivity interaction (ActivX KiNativ screen (kinase selectivity in THP-1 cell lysates)) EUB0000639a HCK; assay type: subcellular; conditions: lysate, at 0.01 µM
[8] = molecular target: Activated CDC42 kinase 1 (Homo sapiens, UniProt Q07912); experiment: Selectivity interaction (KinomeScan (DiscoverX)) EUB0000655a TNK2; conditions: at 10 µM
Chain of Activated CDC42 kinase 1 (Q07912 whole entry, looked up): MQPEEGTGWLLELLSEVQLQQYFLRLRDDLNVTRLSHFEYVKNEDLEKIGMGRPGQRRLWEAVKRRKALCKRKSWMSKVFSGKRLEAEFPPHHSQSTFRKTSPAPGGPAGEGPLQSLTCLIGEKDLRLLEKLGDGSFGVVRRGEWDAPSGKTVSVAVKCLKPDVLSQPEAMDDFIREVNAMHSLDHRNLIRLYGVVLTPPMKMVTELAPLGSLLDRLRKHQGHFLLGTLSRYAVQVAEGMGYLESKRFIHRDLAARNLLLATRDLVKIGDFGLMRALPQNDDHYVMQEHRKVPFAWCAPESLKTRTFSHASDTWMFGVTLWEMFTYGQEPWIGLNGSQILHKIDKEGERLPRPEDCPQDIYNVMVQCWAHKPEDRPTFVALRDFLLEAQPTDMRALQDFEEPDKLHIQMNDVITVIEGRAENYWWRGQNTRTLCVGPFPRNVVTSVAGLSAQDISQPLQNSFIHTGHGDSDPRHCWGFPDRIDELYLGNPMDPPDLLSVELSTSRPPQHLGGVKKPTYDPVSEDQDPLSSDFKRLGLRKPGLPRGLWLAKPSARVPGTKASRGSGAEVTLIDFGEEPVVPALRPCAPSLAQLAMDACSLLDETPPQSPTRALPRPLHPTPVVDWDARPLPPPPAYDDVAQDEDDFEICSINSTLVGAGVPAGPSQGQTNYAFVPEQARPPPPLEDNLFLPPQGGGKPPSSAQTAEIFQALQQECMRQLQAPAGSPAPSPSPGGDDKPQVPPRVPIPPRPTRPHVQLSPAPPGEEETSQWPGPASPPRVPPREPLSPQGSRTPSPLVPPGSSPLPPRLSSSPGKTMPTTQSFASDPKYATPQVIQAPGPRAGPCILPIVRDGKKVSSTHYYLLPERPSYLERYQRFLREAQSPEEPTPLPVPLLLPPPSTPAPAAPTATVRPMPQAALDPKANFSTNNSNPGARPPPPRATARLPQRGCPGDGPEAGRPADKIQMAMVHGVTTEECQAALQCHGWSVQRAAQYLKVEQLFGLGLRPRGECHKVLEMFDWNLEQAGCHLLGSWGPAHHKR

Chain of Tyrosine-protein kinase HCK (Homo sapiens) (P08631 2-526 limits assumed): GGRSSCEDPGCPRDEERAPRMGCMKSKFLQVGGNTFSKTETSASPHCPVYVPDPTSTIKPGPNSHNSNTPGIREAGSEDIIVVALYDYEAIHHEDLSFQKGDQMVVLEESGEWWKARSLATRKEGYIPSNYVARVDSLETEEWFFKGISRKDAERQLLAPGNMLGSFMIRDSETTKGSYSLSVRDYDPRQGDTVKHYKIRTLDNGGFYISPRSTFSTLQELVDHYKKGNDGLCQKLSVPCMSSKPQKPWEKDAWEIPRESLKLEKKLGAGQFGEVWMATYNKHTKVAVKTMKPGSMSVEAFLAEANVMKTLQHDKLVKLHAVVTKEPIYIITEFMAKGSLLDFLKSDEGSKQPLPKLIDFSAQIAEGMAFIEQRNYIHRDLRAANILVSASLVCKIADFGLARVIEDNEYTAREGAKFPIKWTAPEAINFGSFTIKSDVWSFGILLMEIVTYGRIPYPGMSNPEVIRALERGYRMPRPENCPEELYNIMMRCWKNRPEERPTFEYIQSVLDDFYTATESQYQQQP
Chain of Tyrosine-protein kinase ABL2 (P42684 whole entry): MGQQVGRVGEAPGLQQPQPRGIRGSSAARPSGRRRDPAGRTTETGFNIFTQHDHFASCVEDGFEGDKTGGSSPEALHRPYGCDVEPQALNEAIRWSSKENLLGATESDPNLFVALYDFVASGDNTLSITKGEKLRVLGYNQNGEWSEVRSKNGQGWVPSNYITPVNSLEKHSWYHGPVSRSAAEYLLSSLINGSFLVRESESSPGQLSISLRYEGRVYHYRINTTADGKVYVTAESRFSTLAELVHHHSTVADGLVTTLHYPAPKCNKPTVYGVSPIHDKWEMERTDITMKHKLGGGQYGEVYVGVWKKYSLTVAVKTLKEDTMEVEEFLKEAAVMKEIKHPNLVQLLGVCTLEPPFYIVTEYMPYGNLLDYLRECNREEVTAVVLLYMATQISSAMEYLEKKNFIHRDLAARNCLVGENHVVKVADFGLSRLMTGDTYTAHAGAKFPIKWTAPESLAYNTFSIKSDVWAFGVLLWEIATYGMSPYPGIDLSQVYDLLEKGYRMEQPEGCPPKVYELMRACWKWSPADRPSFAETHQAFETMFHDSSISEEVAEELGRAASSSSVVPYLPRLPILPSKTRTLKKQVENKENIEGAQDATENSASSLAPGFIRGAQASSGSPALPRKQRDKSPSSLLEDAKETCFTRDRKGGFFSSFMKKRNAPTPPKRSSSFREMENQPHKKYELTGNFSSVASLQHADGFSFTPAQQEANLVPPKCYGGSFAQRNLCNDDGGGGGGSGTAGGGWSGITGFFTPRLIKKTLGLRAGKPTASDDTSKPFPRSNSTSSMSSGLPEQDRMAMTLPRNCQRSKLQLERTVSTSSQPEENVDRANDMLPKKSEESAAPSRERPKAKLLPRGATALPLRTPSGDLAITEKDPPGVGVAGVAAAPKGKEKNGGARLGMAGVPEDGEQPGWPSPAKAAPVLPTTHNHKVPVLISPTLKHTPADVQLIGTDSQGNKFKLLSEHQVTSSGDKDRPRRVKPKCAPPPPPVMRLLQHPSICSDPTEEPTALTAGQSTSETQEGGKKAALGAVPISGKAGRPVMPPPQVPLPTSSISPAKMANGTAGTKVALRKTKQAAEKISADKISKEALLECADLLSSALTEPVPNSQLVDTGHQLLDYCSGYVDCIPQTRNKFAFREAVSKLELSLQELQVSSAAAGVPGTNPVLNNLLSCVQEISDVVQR
Chain of Homeodomain-interacting protein kinase 2 (Q9H2X6 whole entry, looked up): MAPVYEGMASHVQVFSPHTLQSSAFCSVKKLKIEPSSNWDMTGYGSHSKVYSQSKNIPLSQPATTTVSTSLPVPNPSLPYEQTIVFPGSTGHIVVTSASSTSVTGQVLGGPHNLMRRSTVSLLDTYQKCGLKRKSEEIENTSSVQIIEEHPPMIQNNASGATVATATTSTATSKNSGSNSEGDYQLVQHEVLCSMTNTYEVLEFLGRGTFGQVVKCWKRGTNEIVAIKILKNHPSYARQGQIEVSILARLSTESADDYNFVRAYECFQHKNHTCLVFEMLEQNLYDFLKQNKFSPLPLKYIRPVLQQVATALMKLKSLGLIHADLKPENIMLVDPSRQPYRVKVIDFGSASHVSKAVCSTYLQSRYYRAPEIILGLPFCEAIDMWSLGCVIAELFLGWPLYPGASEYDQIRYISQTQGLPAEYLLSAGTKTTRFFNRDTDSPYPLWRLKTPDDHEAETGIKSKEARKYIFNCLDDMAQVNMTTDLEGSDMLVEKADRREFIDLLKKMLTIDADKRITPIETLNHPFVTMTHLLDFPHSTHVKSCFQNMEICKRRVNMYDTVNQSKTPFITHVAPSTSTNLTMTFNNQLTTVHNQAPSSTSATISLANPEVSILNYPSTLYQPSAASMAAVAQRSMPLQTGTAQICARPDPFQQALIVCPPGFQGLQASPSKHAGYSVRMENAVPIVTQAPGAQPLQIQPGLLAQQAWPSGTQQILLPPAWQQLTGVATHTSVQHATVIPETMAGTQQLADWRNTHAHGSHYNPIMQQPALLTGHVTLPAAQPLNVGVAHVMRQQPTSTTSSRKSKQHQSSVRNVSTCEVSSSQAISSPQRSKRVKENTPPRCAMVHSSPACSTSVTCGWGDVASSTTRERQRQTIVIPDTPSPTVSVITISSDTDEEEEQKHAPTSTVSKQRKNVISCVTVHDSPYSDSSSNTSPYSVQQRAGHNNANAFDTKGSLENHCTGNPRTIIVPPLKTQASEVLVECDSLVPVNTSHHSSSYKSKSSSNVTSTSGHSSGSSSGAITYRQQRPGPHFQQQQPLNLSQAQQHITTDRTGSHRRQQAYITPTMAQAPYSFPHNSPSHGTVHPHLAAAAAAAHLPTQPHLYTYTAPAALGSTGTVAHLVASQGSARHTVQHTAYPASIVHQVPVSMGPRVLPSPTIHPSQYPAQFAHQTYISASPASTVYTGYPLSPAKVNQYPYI
Chain of Atypical kinase COQ8A, mitochondrial (Q8NI60 163-647 limits assumed): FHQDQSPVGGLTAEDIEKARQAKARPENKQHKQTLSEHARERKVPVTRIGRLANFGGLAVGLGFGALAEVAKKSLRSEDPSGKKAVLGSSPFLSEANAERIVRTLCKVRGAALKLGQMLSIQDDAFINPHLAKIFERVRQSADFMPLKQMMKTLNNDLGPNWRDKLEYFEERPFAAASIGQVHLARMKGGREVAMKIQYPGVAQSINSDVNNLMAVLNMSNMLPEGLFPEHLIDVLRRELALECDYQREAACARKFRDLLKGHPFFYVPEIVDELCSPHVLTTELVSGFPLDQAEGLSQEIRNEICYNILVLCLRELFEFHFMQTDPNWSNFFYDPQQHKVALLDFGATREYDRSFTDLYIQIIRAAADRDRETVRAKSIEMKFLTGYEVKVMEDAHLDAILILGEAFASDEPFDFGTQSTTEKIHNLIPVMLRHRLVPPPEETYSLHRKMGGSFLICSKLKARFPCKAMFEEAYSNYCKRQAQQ

SMILES: COc1cc(N(C)c2ccnc3ccc(C(F)(F)F)cc23)cc(OC)c1OC
- % binding [1]: 100%

SMILES: COCC(=O)NC/C=C/c1ccc2ncnc(Nc3ccc(Oc4ccc(C)nc4)c(C)c3)c2c1 [CP-724714]
- % of control [2]: 100%

SMILES: Cc1cc(F)c(C(=O)Nc2cccc(-c3nncn3C(C)C)n2)cc1-n1cnc(C2CC2)c1
- % of control [3]: 93%

SMILES: Nc1cnc(N2CCc3cc(S(=O)(=O)Nc4c(F)cc(Cl)cc4F)cc(N4CCCC4=O)c32)nc1 [TP-020n]
- % of control [4]: 95%

SMILES: Cn1cc(-n2cnc3c(NCc4nc5cc(Cl)c(Cl)cc5[nH]4)nc(N4CCOCC4)nc32)cn1
- % of control [5]: 11.7%

SMILES: O=C(NOC[C@H](O)CO)c1ccc(F)c(F)c1Nc1ccc(I)cc1F
- % of control [6]: 86%

SMILES: CC[C@@H]1[C@H](F)C(=O)N[C@@H]1COc1nccc2cc(C(N)=O)c(OC)cc12 [ZIMLOVISERTIB]
- % of inhibition [7]: -14.7%

SMILES: CN(C)CCOc1ccc(-c2nc(-c3ccncc3)c(-c3ccc4c(c3)CC/C4=N\O)[nH]2)cc1
- % of control [8]: 100%
